This is an account of results in ChEMBL document CHEMBL4476873, “Substituted urea depsipeptide analogs as activators of the clpp endopeptidase” (2018).

The test system of one test is Vero. Put plainly: Cytotoxicity in African green monkey Vero cells assessed as reduction in cell viability incubated for 72 hrs by cell-titer-Glo luminescent cell viability assay. Format: cell-based. Particulars: Chlorocebus sabaeus.
A further test concerns Staphylococcus aureus. The test is described as follows: Antimicrobial activity against Staphylococcus aureus USA300 deficient in ClpP incubated overnight under aerobic condition by microbroth dilution method. The class given is functional. Background: In broth dilution the organism is exposed to a series of concentrations in liquid medium.
Test [1] has as its target T1, ATP-dependent Clp protease proteolytic subunit (Staphylococcus aureus (strain NCTC 8325), UniProt Q2G036).
T1 sequence (Q2G036 whole entry): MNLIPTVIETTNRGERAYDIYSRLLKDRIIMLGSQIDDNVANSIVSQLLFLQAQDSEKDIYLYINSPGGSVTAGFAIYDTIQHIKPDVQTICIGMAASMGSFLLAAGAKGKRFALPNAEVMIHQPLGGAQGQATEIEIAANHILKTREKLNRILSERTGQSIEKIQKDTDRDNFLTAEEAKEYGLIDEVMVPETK
Put plainly: Activation of Staphylococcus aureus ClpP using BODIPY-FL-casein as substrate incubated for 30 mins by Enz-Check protease assay.

The next test deals with Enterococcus faecalis. Put plainly: Antimicrobial activity against Enterococcus faecalis ATCC 33186 incubated overnight under aerobic condition by microbroth dilution method. The class given is functional.
The next test concerns Bacillus subtilis. The test is described as follows: Antimicrobial activity against Bacillus subtilis ATCC 23857 incubated overnight under aerobic condition by microbroth dilution method. The class given is functional.

SMILES strings stand for the structures. Converted amounts (≈) assume the structure as drawn.

In the case of `Cc1ccc(NC(=O)N[C@@H](Cc2cc(F)cc(F)c2)C(=O)N[C@@H]2C(=O)N3C[C@H](O)C[C@H]3C(=O)N(C)[C@@H](C)C(=O)N[C@@H](C)C(=O)N3C[C@@H](C)C[C@H]3C(=O)O[C@H]2C)cc1`, the IC50 (usually the concentration that gives 50% inhibition) in the test with Vero was more than 100000 nM. Also, in the test on Staphylococcus aureus, the MIC (usually the smallest concentration in the dilution series that meets the test's criterion for growth inhibition) is more than 200 µM. This compound also had an EC50 in test [1] of 370 nM.

For `CN(C)[C@@H]1C(O)=C(C(N)=O)C(=O)[C@@]2(O)C(O)=C3C(=O)c4c(O)cccc4[C@@](C)(O)[C@H]3C[C@@H]12` [TETRACYCLINE], the MIC in the test on Enterococcus faecalis was found to be 0.05 µM (≈ 0.0222 µg/mL); with Bacillus subtilis, 1.6 µM (≈ 0.711 µg/mL).
